The values that follow come from ChEMBL document CHEMBL1649197, “New combinations of mutations in VanD-Type vancomycin-resistant Enterococcus faecium, Enterococcus faecalis, and Enterococcus avium strains” (2009).

Holding throughout (format): functional
Experiment [1] relates to Enterococcus faecium. In words: Antimicrobial activity against Enterococcus faecium BM4458 harboring plasmid PAT830 carrying P2 vanSD (V67A) aac (6)-aph (2) mutant gene after 24 hrs. The note with it: BM4458, 24 h.
Experiment [2] has as its system Enterococcus faecium. Put plainly: Antimicrobial activity against Enterococcus faecium BM4458 after 24 hrs. The note with it: BM4458, 24 h.
The test system of experiment [3] is Enterococcus faecium. In words: Antimicrobial activity against Enterococcus faecium BM4458 harboring plasmid PAT833 carrying P2 vanSD (G340S) aac (6)-aph (2) mutant gene after 24 hrs. The settings on record: BM4458, 24 h.
Experiment [4] deals with Enterococcus faecium. In words: Antimicrobial activity against vancomycin and teicoplanin resistant Enterococcus faecium BM4653 after 24 hrs. The settings on record: BM4653, 24 h.
Experiment [5] has as its system Enterococcus faecium. In words: Antimicrobial activity against Enterococcus faecium BM4458 harboring plasmid PAT831 carrying P2 vanSD 6bp330 aac (6)-aph (2) mutant gene after 24 hrs. The note with it: BM4458, 24 h.
Experiment [6] has as its system Enterococcus faecium. Put plainly: Antimicrobial activity against Enterococcus faecium BM4458 harboring plasmid PAT832 carrying P2 vanSD (K308Q I309V R335Q) aac (6)-aph (2) mutant gene after 24 hrs. The settings on record: BM4458, 24 h.
For a further experiment, the system named is Enterococcus avium. Put plainly: Antimicrobial activity against vancomycin and teicoplanin resistant Enterococcus avium BM4655 after 24 hrs. The note with it: BM4655, 24 h.
In experiment [7] the test system is Enterococcus faecium. Put plainly: Antimicrobial activity against vancomycin and teicoplanin resistant Enterococcus faecium BM4339 after 24 hrs. The note with it: BM4339, 24 h.
For experiment [8], the system named is Enterococcus faecium. In words: Antimicrobial activity against vancomycin and teicoplanin resistant Enterococcus faecium BM4656 after 24 hrs. The settings on record: BM4656, 24 h.
Experiment [9] concerns Enterococcus faecium. Put plainly: Antimicrobial activity against vancomycin and teicoplanin resistant Enterococcus faecium NEF1 after 24 hrs. The settings on record: NEF1, 24 h.
A further experiment has as its system Enterococcus faecalis. In words: Antimicrobial activity against vancomycin and teicoplanin resistant Enterococcus faecalis BM4654 after 24 hrs. The note with it: BM4654, 24 h.

Converted amounts (≈) assume the structure as drawn.

With `CC(=O)N[C@@H]1[C@H](Oc2c3cc4cc2Oc2ccc(cc2Cl)[C@@H](O[C@@H]2O[C@@H](CO)[C@@H](O)[C@H](O)[C@@H]2NC(C)=O)[C@@H]2NC(=O)[C@H](NC(=O)[C@@H]4NC(=O)[C@H]4NC(=O)[C@@H](Cc5ccc(c(Cl)c5)O3)NC(=O)[C@H](N)c3ccc(O)c(c3)Oc3cc(O)cc4c3)c3ccc(O)c(c3)-c3c(O[C@H]4O[C@H](CO)[C@@H](O)[C@@H](O)[C@@H]4O)cc(O)cc3[C@@H](C(=O)O)NC2=O)O[C@@H](CO)[C@@H](O)[C@@H]1O`, the minimal inhibitory concentration (MIC) stood at 0.5 µg/mL (≈ 0.283 µM) in the experiment with Enterococcus faecium [1]; 0.5 µg/mL (≈ 0.283 µM) in the experiment on Enterococcus faecium [2]; 0.5 µg/mL (≈ 0.283 µM) against Enterococcus faecium [3]; 4 µg/mL (≈ 2.26 µM) in the experiment with Enterococcus faecium [4]; 0.5 µg/mL (≈ 0.283 µM) in the experiment on Enterococcus faecium [5]; 0.5 µg/mL (≈ 0.283 µM) with Enterococcus faecium [6]. The minimum inhibitory concentration (MIC) against Enterococcus avium was found to be 4 µg/mL (≈ 2.26 µM); in the experiment with Enterococcus faecium [7], 4 µg/mL (≈ 2.26 µM); in the experiment on Enterococcus faecium [8] it was 4 µg/mL (≈ 2.26 µM); against Enterococcus faecium [9], 64 µg/mL (≈ 36.2 µM); against Enterococcus faecalis it was 0.5 µg/mL (≈ 0.283 µM).

On to `CN[C@H](CC(C)C)C(=O)N[C@H]1C(=O)N[C@@H](CC(N)=O)C(=O)N[C@H]2C(=O)N[C@H]3C(=O)N[C@H](C(=O)N[C@H](C(=O)O)c4cc(O)cc(O)c4-c4cc3ccc4O)[C@H](O)c3ccc(c(Cl)c3)Oc3cc2cc(c3O[C@@H]2O[C@H](CO)[C@@H](O)[C@H](O)[C@H]2O[C@H]2C[C@](C)(N)[C@H](O)[C@H](C)O2)Oc2ccc(cc2Cl)[C@H]1O` [VANCOMYCIN], for which the MIC against Enterococcus faecium [1] turned out to be 4 µg/mL (≈ 2.76 µM); against Enterococcus faecium [2], 4 µg/mL (≈ 2.76 µM); against Enterococcus faecium [3], 4 µg/mL (≈ 2.76 µM); against Enterococcus faecium [4], 32 µg/mL (≈ 22.1 µM); with Enterococcus faecium [5], 4 µg/mL (≈ 2.76 µM); against Enterococcus faecium [6], 4 µg/mL (≈ 2.76 µM). Besides, the MIC in the experiment with Enterococcus avium was 32 µg/mL (≈ 22.1 µM); with Enterococcus faecium [7], 64 µg/mL (≈ 44.2 µM); with Enterococcus faecium [8] it was 32 µg/mL (≈ 22.1 µM); in the experiment on Enterococcus faecium [9], 512 µg/mL (≈ 353 µM); in the experiment with Enterococcus faecalis it was 16 µg/mL (≈ 11 µM).

A word on the MIC: it is the smallest concentration in the dilution series that meets the test's criterion for growth inhibition. A lower MIC goes with a more susceptible organism.
